Reference: patent US20100298141A1, “SUBSTITUTED PYRIDINE N-OXIDE HERBICIDES” (E. I. DU PONT DE NEMOURS AND COMPANY, priority 2007, published 2010)

Columns and labels:
[1] = tested on: Russian thistle; experiment: Test C pre-/postemergence test; assay type: in vivo, Salsola kali
Excerpt: Seeds of plant species selected from blackgrass (Alopecurus myosuroides), downy brome (Bromus tectorum), green foxtail (Setaria viridis), Italian ryegrass (Lolium multiflorum), wheat (Triticum aestivum), wild oat (Avena fatua), catchweed bedstraw (Galium aparine), Russian thistle (Salsola kali), […] (Cynodon dactylon), Surinam grass (Brachiaria decumbens), cocklebur (Xanthium strumarium), corn (Zea mays), crabgrass (Digitaria sanguinalis), woolly cupgrass (Eriochloa villosa), giant foxtail (Setaria faberii), Goosegrass (Eleusin indica), johnsongrass (Sorghum halepense), kochia (Kochia scoparia), lambsquarters (Chenopodium album), morningglory (Ipomoea coccinea), eastern black nightshade (Solanum ptycanthum), yellow nutsedge (Cyperus esculentus), pigweed (Amaranthus retroflexus), common ragweed (Ambrosia elation), soybean (Glycine max), common (oilseed) sunflower (Helianthus annuus), and velvetleaf (Abutilon theophrasti) were planted and treated preemergence with test chemicals formulated in a non-phytotoxic solvent mixture which included a surfactant. At the same time, plants selected from these crop and weed species and also winter barley (Hordeum vulgare), canarygrass (Phalaris minor), and chickweed (Stellaria media) were treated with postemergence applications of some of the test chemicals formulated in the same manner. Plants ranged in height from 2 to 18 cm (1- to 4-leaf stage) for postemergence treatments. […] At time of treatment, test pots were flooded to 3 cm above the soil surface, treated by application of test compounds directly to the paddy water, and then maintained at that water depth for the duration of the test. […] A dash (-) response means no test result.

[2] = tested on: green foxtail; experiment: Test F preemergence test; assay type: in vivo, Setaria viridis; details: scale 0 to 100
In short: (§1)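 Test chemicals in a non-phytotoxic solvent mixture containing a surfactant were applied preemergence to sown seeds or postemergence to sugarcane plants. Treated plants and controls were held in a greenhouse for 14 to 21 days, then visually evaluated against controls.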

[3] = tested on: mustard; experiment: Test F preemergence test; assay type: in vivo, Brassica nigra; details: scale 0 to 100
In short: as §1

[4] = tested on: guineagrass; experiment: Test F preemergence test; assay type: in vivo, Panicum maximum; details: scale 0 to 100
In short: as §1

[5] = tested on: dallisgrass; experiment: Test F preemergence test; assay type: in vivo, Paspalum dilatatum; details: scale 0 to 100
In short: as §1

[6] = tested on: barnyardgrass; experiment: Test F preemergence test; assay type: in vivo, Echinochloa crus-galli
In short: as §1

[7] = tested on: southern sandbur; experiment: Test F preemergence test; assay type: in vivo, Cenchrus echinatus; details: scale 0 to 100
In short: as §1

[8] = tested on: prickly sida; experiment: Test F preemergence test; assay type: in vivo, Sida spinosa; details: scale 0 to 100
In short: as §1

[9] = tested on: common purslane; experiment: Test F preemergence test; assay type: in vivo, Portulaca oleracea; details: scale 0 to 100
In short: as §1

[10] = tested on: common groundsel; experiment: Test F preemergence test; assay type: in vivo, Senecio vulgaris; details: scale 0 to 100
In short: as §1

[11] = tested on: itchgrass; experiment: Test F preemergence test; assay type: in vivo, Rottboellia cochinchinensis; details: scale 0 to 100
In short: as §1

[12] = tested on: quackgrass; experiment: Test F preemergence test; assay type: in vivo, Elytrigia repens; details: scale 0 to 100
In short: as §1

[13] = tested on: field bindweed; experiment: Test F preemergence test; assay type: in vivo, Convolvulus arvensis; details: scale 0 to 100
In short: as §1

[14] = tested on: common mallow; experiment: Test F preemergence test; assay type: in vivo, Malva sylvestris; details: scale 0 to 100
In short: as §1

CC(Oc1c(C[S+]([O-])c2ccc(Cl)c[n+]2[O-])c(C(F)(F)F)nn1C)C(F)(F)F (centres unmarked) [Compound 87]
Russian Thistle plant response rating ([1]; 62 g ai/ha, Preemergence, scale 0 to 100): 100
Russian Thistle plant response rating ([1]; 125 g ai/ha, preemergence, scale 0 (no effect) to 100 (complete control)): 100
Plant response rating, Russian Thistle ([1]; Preemergence, 31 g ai/ha, scale 0 to 100 (0 no effect, 100 complete control)): 100
Russian Thistle plant response rating ([1]; preemergence, 250 g ai/ha, scale 0 (no effect) to 100 (complete control)): 100
Plant response rating, Foxtail, Green ([2]; 16 g ai/ha, preemergence): 35
Foxtail, Green plant response rating ([2]; 125 g ai/ha, preemergence): 98
Plant response rating, Foxtail, Green ([2]; Preemergence, 62 g ai/ha): 80
Plant response rating, Foxtail, Green ([2]; Preemergence, 31 g ai/ha): 65
Plant response rating, Black Mustard ([3]; 16 g ai/ha, preemergence): 0
Black Mustard plant response rating ([3]; 125 g ai/ha, preemergence): 100
Plant response rating, Black Mustard ([3]; Preemergence, 62 g ai/ha): 90
Plant response rating, Black Mustard ([3]; Preemergence, 31 g ai/ha): 30
Plant response rating, Guineagrass ([4]; 16 g ai/ha, preemergence): 90
Guineagrass plant response rating ([4]; 125 g ai/ha, preemergence): 100
Plant response rating, Guineagrass ([4]; Preemergence, 62 g ai/ha): 100
Plant response rating, Guineagrass ([4]; Preemergence, 31 g ai/ha): 100
Plant response rating, Dallisgrass ([5]; 16 g ai/ha, preemergence): 0
Dallisgrass plant response rating ([5]; 125 g ai/ha, preemergence): 80
Plant response rating, Dallisgrass ([5]; Preemergence, 62 g ai/ha): 60
Plant response rating, Dallisgrass ([5]; Preemergence, 31 g ai/ha): 50
Plant response rating, Barnyardgrass ([6]; 16 g ai/ha, preemergence, scale 0 to 100 (0 no effect, 100 complete control)): 60
Barnyardgrass plant response rating ([6]; 125 g ai/ha, preemergence, scale 0 to 100): 100
Plant response rating, Barnyardgrass ([6]; Preemergence, 62 g ai/ha, scale 0 to 100): 100
Plant response rating, Barnyardgrass ([6]; Preemergence, 31 g ai/ha, scale 0 to 100): 75
Plant response rating, Sandbur ([7]; 16 g ai/ha, preemergence): 50
Sandbur plant response rating ([7]; 125 g ai/ha, preemergence): 100
Plant response rating, Sandbur ([7]; Preemergence, 62 g ai/ha): 100
Plant response rating, Sandbur ([7]; Preemergence, 31 g ai/ha): 100
Plant response rating, Prickly Sida ([8]; 16 g ai/ha, preemergence): 0
Prickly Sida plant response rating ([8]; 125 g ai/ha, preemergence): 100
Plant response rating, Prickly Sida ([8]; Preemergence, 62 g ai/ha): 75
Plant response rating, Prickly Sida ([8]; Preemergence, 31 g ai/ha): 50
Plant response rating, Purslane ([9]; 16 g ai/ha, preemergence): 0
Purslane plant response rating ([9]; 125 g ai/ha, preemergence): 100
Plant response rating, Purslane ([9]; Preemergence, 62 g ai/ha): 70
Plant response rating, Purslane ([9]; Preemergence, 31 g ai/ha): 20
Plant response rating, Groundsel ([10]; 16 g ai/ha, preemergence): 0
Groundsel plant response rating ([10]; 125 g ai/ha, preemergence): 65
Plant response rating, Groundsel ([10]; Preemergence, 62 g ai/ha): 0
Plant response rating, Groundsel ([10]; Preemergence, 31 g ai/ha): 0
Plant response rating, Itchgrass ([11]; 16 g ai/ha, preemergence): 35
Itchgrass plant response rating ([11]; 125 g ai/ha, preemergence): 100
Plant response rating, Itchgrass ([11]; Preemergence, 62 g ai/ha): 100
Plant response rating, Itchgrass ([11]; Preemergence, 31 g ai/ha): 85
Plant response rating, Quackgrass ([12]; 16 g ai/ha, preemergence): 60
Quackgrass plant response rating ([12]; 125 g ai/ha, preemergence): 90
Plant response rating, Quackgrass ([12]; Preemergence, 62 g ai/ha): 80
Plant response rating, Quackgrass ([12]; Preemergence, 31 g ai/ha): 60
Plant response rating, Field Bindweed ([13]; 16 g ai/ha, preemergence): 0
Field Bindweed plant response rating ([13]; 125 g ai/ha, preemergence): 40
Plant response rating, Field Bindweed ([13]; Preemergence, 62 g ai/ha): 20
Plant response rating, Field Bindweed ([13]; Preemergence, 31 g ai/ha): 0
Plant response rating, Mallow ([14]; 16 g ai/ha, preemergence): 50
Mallow plant response rating ([14]; 125 g ai/ha, preemergence): 100
Plant response rating, Mallow ([14]; Preemergence, 62 g ai/ha): 100
Plant response rating, Mallow ([14]; Preemergence, 31 g ai/ha): 75
